# Like-named read-outs stand apart in the source and are kept apart here.
# Columns and labels:
# [1] = test system: A253 squamous cell carcinoma of the head and neck xenografts; experiment: Cure rate / antitumor activity in nude mice bearing A253 head and neck xenografts; assay type: in vivo
# Experimental: (§1) 5-Methylselenocysteine (MSC). Two schedules were evaluated: 1) in combination with irinotecan, MSC (0.2 mg/mouse/d×28) was administered orally for 28 days with the first dose administered daily for seven days prior to the weekly drug administration and 2) in combination with other drugs, MSC was administered orally (0.2 mg/mouse/d×14) daily for 14 days with the first dose administered daily for seven days prior to the single i.v. administration of taxol, CDDP, Dox, taxotere and cyclophosphamide.
# (§2) Anticancer drug administration. The anticancer drugs administration schedule was as follows. • i. Irinotecan (CPT-11), weekly i.v. push for four (4) weeks, • ii. Taxol, single i.v. push, • iii. Cisplatin (CDDP), single i.v. push. • iv. Doxorubin (Dox), single i.v. push. • v. Cyclophosphamide, single i.v. push. • vi. Oxaliplatin, single i.v. push • vii. Taxotere, single i.v. push
# (§3) Tumor Xenografts. […] The following tumor xenografts were established. • i. HCT-8: poorly-differentiated colon carcinoma, expressing wild type p53 • ii. HT-29: well-differentiated colon carcinoma expressing mutant p53 • iii. A253: well-differentiated squamous cell carcinoma of the head and neck (SCCHN) expressing no p53 • iv. FaDu: poorly-differentiated squamous cell carcinoma of the head and neck (SCCHN) expressing mutant p53
# This example describes the comparative antitumor activity of MSC and SLM in combination with the maximum tolerated dose of irinotecan. […] As an illustration, MSC and SLM were used in combination with irinotecan. The results, shown in FIG. 3, represent a comparative evaluation of the effect of MSC and SLM (0.2 mg/mouse/d×28) on the antitumor activity of irinotecan (100 mg/kg/wk×4).
# To determine whether therapeutic synergy achieved with irinotecan in xenografts is specific for MSC, the antitumor activity of irinotecan with and without two selenium-containing compounds, MSC and SLM were compared in xenografts bearing A253 (SCCHN) tumors for the […] (200 mg/kg/wk×4). The data compare the antitumor activity of MSC with SLM in combination with irinotecan (200 mg/kg/wk×4).
# (§4) This example describes the modulation of the antitumor activity of anticancer drugs by MSC in mice bearing human tumors. […] To determine whether modulation of the therapeutic efficacy and cure of irinotecan by MSC is drug specific, the antitumor activity of drugs, representing different classes and mechanisms of action were evaluated alone and in combination with non-toxic doses and schedules of MSC (0.2 mg/mouse/d×14) in xenografts bearing human A253 and FaDu (SCCHN) tumors (FIG. 5). The data in FIG. 5 represent the use of the MTD doses of cisplatin (8 mg/kg×1), cyclophosphamide (100 mg/kg×1), taxol (35 mg/kg ×1.) and doxorubicin (10 mg/kg×1).
# [2] = test system: FaDu squamous cell carcinoma of the head and neck xenografts; experiment: Cure rate / antitumor activity in nude mice bearing FaDu head and neck xenografts; assay type: in vivo; details: for % CR of Surviving Animals FaDu: without or with MSC 0.2 mg/mouse/d
# Experimental: as §1, §2
# Tumor Xenografts. […] The following tumor xenografts were established. • i. HCT-8: poorly-differentiated colon carcinoma, expressing wild type p53 • ii. HT-29: well-differentiated colon carcinoma expressing mutant p53 • iii. A253: well-differentiated squamous cell carcinoma of the head and neck (SCCHN) expressing no p53 • iv. FaDu: poorly-differentiated squamous cell carcinoma of the head and neck (SCCHN) expressing mutant p53 […]
# as §4
# In mice, MSC was orally administered at 0.2 mg/mouse/d with the first daily dose administered seven days prior to single i.v. administration of drug and continuous for additional seven days for a total MSC treatment of 14 days.
# [3] = test system: Mice
# [4] = test system: rat; experiment: Reduction of doxorubicin toxicity by selenium compounds in rats; assay type: in vivo; details: 0.5 mg/day/rat daily for 14 days, started 7 days prior to doxorubicin; data not shown
# [5] = in vivo; details: rat
# [6] = test system: nude mice; experiment: Irinotecan lethality / survival with and without selenium compound; assay type: in vivo; details: for Survivor (%): without or with MSC 0.2 mg/mouse/d × 28 p.o.
# Experimental: This example describes the evaluation of the effect of selenium containing compounds on the antitumor activity of irinotecan. […] Irinotecan was administered at 100 mg/kg/wk for 4 weeks (MTD) and 200 mg/kg/wk for 4 weeks (toxic) alone and in combination with 0.2 mg/mouse/d of MSC for 28 days to nude mice bearing HCT-8 colon xenografts. […] Thus, MSC potentiates the efficacy of irinotecan by increasing cure rate and by decreasing toxicity.
# Nude mice (5 mice/group; experiment repeated ≧3 times) were treated with 0.2 mg/mouse/day of SLM (data replicated with MSC) for 21, 7, 3, 1, or 0 days prior to initiation of weekly IV irinotecan at 2 ×the MTD (at 200mg/kg/week×4). […] 3 days pre-treatment was associated with 80% survivorship while 0-1 days were associated with 60% (45% survivorship for irinotecan alone) (FIG. 13). Thus, the optimal duration of pre-treatment with SLM 0.2mg/mouse/day for maximum protection against irinotecan lethality was identified to be at least 1 week.
# [7] = test system: HCT-8 colon xenografts; experiment: Cure rate / antitumor activity in nude mice bearing HCT-8 colon xenografts; assay type: in vivo; details: for HCT-8 CR (%) / HCT-8 PR (%): drug 100 mg/kg/week i.v. × 4, MSC 0.2 mg/day/mouse p.o. 42 days started 21 days before drug; for % CR of Surviving Animals HCT-8: without or with MSC 0.2 mg/mouse/d
# Experimental: as §1, §2, §3
# This example describes the evaluation of the effect of selenium containing compounds on the antitumor activity of irinotecan. […] Irinotecan was administered at 100 mg/kg/wk for 4 weeks (MTD) and 200 mg/kg/wk for 4 weeks (toxic) alone and in combination with 0.2 mg/mouse/d of MSC for 28 days to nude mice bearing HCT-8 colon xenografts.
# For these experiments, FUra was administered by i.v. push weekly times 4 and MSC by p.o. once a day for 6 weeks, the first dose being given 3 weeks before FUra administration. Irinotecan was administered by i.v. 100 mg/kg/week once a week for 4 weeks and MSC (0.2 mg/day), by p.o. daily for 28 days with the first dose started 7 days prior to irinotecan treatment.
# [8] = test system: HT-29 colon xenografts; experiment: Cure rate / antitumor activity in nude mice bearing HT-29 colon xenografts; assay type: in vivo; details: for HT-29 CR (%) / HT-29 PR (%): drug 100 mg/kg/week i.v. × 4, MSC 0.2 mg/day/mouse p.o. 42 days started 21 days before drug; for % CR of Surviving Animals HT-29: without or with MSC 0.2 mg/mouse/d
# [9] = in vivo; details: nude, mouse
# [10] = test system: nude mice; details: taxotere 100 mg/kg single i.v.
# Experimental: Taxotere was administered to nude mice at non-toxic (60 mg/kg) or toxic (100 mg/kg) dose by a single i.v. injection and MSC was administered by oral route daily for 14 days with the first dose of MSC started before taxotere treatment.
# [11] = test system: Rats; details: oxaliplatin 10 mg/kg single i.v.; alone or with MSC […]
# Experimental: In this example, the effect of selenium on the antitumor activity of oxaliplatin and doxorubicin was tested as follows. The effect of selenium was determined on the antitumor activity of oxaliplatin in rats bearing advanced ward colorectal carcinoma (3000 mg). Rats received MSC (0.75 mg/rat/d) or saline fourteen days prior to single i.v. injection of oxaliplatin of 5 and 10 mg/kg with continuous daily oral administration of MSC for additional seven days for a total of 21 days of MSC and oxaliplatin is administered on day 14 after saline and MSC treatment.
# [12] = test system: normal nude mice; experiment: Toxicity of selenium compounds alone in normal nude mice; assay type: in vivo; details: 0.2 mg/mouse/day for 28 days orally
# Experimental: However, it was observed that when cure rates were evaluated, selenium increased the efficacy of only irinotecan and taxotere. While not intending to be bound by any particular theory, it is considered that potentiation of the efficacy of anticancer drugs is associated with increased antitumor activity and decreased toxicity.
# [13] = Table 3 (A253), drug dose mg/kg and MSC mg/mouse/day in parentheses of Treatment
# [14] = Table 3 first column pair (head printed 'FaUra'), drug dose mg/kg and MSC mg/mouse/day in parentheses of Treatment
# [15] = Table 3 first column pair (head printed 'FaUra'), drug dose mg/kg and MSC mg/mouse/day in parentheses of Treatment, schedules per footnote
structure (smiles),measurement,setting,value
"N.N.[Cl][Pt][Cl] [Cisplatin, cisplatin]",CR (%) (complete tumor regression),[1]; [13],0%
same,"PR (%) (partial tumor regression, >50% tumor reduction)",[1]; [13],0%
same,"PR (%) (partial tumor regression, >50% tumor reduction)",[2]; [14],0%
same,CR (%) (complete tumor regression),[2]; [15],0%
same,MTD (mg/kg) Mice,[3]; drug alone (−) or with MSC (+),8 mg/kg
O=[Se](O)O [sodium selenite],reducing toxicity of doxorubicin,[4],not sodium selenite
"COc1cccc2c1C(=O)c1c(O)c3c(c(O)c1C2=O)C[C@@](O)(C(=O)CO)C[C@@H]3O[C@H]1C[C@H](N)[C@H](O)[C@H](C)O1 [Doxorubicin, doxorubicin]",CR (%) (complete tumor regression),[1]; [13],0%
same,"PR (%) (partial tumor regression, >50% tumor reduction)",[1]; [13],60%
same,MTD,[5],6 mg/kg
same,"PR (%) (partial tumor regression, >50% tumor reduction)",[2]; [14],0%
same,CR (%) (complete tumor regression),[2]; [15],0%
same,MTD (mg/kg) Mice,"[3]; nude, mouse, in vivo",10 mg/kg
"CCc1c2c(nc3ccc(OC(=O)N4CCC(N5CCCCC5)CC4)cc13)-c1cc3c(c(=O)n1C2)COC(=O)[C@]3(O)CC [Irinotecan, irinotecan]",Survivor (%),[6]; irinotecan 100 mg/kg/wk × 4 i.v.,100%
same,survivorship,[6]; irinotecan 200 mg/kg/week × 4 alone (Example 8),45%
same,Survivor (%),[6]; irinotecan 200 mg/kg/wk × 4 i.v.,50%
same,lethality,"[6]; irinotecan 300 mg/kg/wk × 4, alone or with MSC",100%
same,Survivor (%),[6]; irinotecan 300 mg/kg/wk × 4 i.v.,0%
same,HCT-8 CR (%),[7],20%
same,HCT-8 PR (%),[7],20%
same,% CR of Surviving Animals HCT-8,[7]; irinotecan 100 mg/kg/wk × 4,20%
same,% CR of Surviving Animals HCT-8,[7]; irinotecan 200 mg/kg/wk × 4,30%
same,HT-29 CR (%),[8],0%
same,HT-29 PR (%),[8],0%
same,% CR of Surviving Animals HT-29,[8]; irinotecan 100 mg/kg/wk × 4,0%
same,% CR of Surviving Animals HT-29,[8]; irinotecan 200 mg/kg/wk × 4,10%
same,CR (%) (complete tumor regression),[1]; [13],10%
same,"PR (%) (partial tumor regression, >50% tumor reduction)",[1]; [13],30%
same,% CR of Surviving Animals A253,"[1]; irinotecan 100 mg/kg/wk × 4, without or with MSC 0.2 mg/mouse/d",20%
same,% CR of Surviving Animals A253,"[1]; irinotecan 200 mg/kg/wk × 4, without or with MSC or SLM 0.2 mg/mouse/d",40%
same,"PR (%) (partial tumor regression, >50% tumor reduction)",[2]; [14],50%
same,CR (%) (complete tumor regression),[2]; [15],30%
same,% CR of Surviving Animals FaDu,[2]; irinotecan 100 mg/kg/wk × 4,30%
same,% CR of Surviving Animals FaDu,[2]; irinotecan 200 mg/kg/wk × 4,50%
same,maximum tolerated weekly dose,"[3]; weekly i.v. for 4 weeks, nude mice",100 mg/kg/wk
CC(=O)O[C@H]1C(=O)[C@@]2(C)[C@H]([C@H](OC(=O)c3ccccc3)[C@]3(O)C[C@H](OC(=O)[C@H](O)[C@@H](NC(=O)c4ccccc4)c4ccccc4)C(C)=C1C3(C)C)[C@]1(OC(C)=O)CO[C@@H]1C[C@@H]2O [Taxol],CR (%) (complete tumor regression),[1]; [13],0%
same,"PR (%) (partial tumor regression, >50% tumor reduction)",[1]; [13],0%
same,MTD,[5],50 mg/kg
same,"PR (%) (partial tumor regression, >50% tumor reduction)",[2]; [14],0%
same,CR (%) (complete tumor regression),[2]; [15],0%
same,MTD,[9],35 mg/kg
"CC[C@@]1(O)C(=O)OCc2c1cc1n(c2=O)Cc2cc3c(CN(C)C)c(O)ccc3nc2-1 [Topotecan, topotecan]",CR (%) (complete tumor regression),[1]; [13],0%
same,"PR (%) (partial tumor regression, >50% tumor reduction)",[1]; [13],0%
same,"PR (%) (partial tumor regression, >50% tumor reduction)",[2]; [14],0%
same,CR (%) (complete tumor regression),[2]; [15],0%
"O=P1(N(CCCl)CCCl)NCCCO1 (stereo not shown) [Cyclophosphamide, cyclophosphamide]",CR (%) (complete tumor regression),"[1]; mouse, in vivo",0%
same,"PR (%) (partial tumor regression, >50% tumor reduction)","[1]; mouse, in vivo",0%
same,CR (%) (complete tumor regression),"[2]; mouse, in vivo",0%
same,"PR (%) (partial tumor regression, >50% tumor reduction)","[2]; mouse, in vivo",0%
same,MTD,[9],100 mg/kg
CC(=O)O[C@@]12CO[C@@H]1C[C@H](O)[C@@]1(C)C(=O)[C@H](O)C3=C(C)[C@@H](OC(=O)[C@H](O)[C@@H](NC(=O)OC(C)(C)C)c4ccccc4)C[C@@](O)([C@@H](OC(=O)c4ccccc4)[C@H]21)C3(C)C [Taxotere],lethality,[10],40%
same,CR (%) (complete tumor regression),[1],0%
same,"PR (%) (partial tumor regression, >50% tumor reduction)",[1],20%
same,animals cured of their tumors,"[1]; A253, taxotere 60 mg/kg single i.v., alone or with MSC 0.2 mg/mouse/d × 14",insensitive
same,animals cured of their tumors,"[2]; FaDu, taxotere 60 mg/kg single i.v., alone or with MSC 0.2 mg/mouse/d × 14",insensitive
same,"PR (%) (partial tumor regression, >50% tumor reduction)",[2]; [14],40%
same,CR (%) (complete tumor regression),[2]; [15],0%
same,MTD,[9],60 mg/kg
CCCCCOC(=O)Nc1nc(=O)n([C@@H]2O[C@H](C)[C@@H](O)[C@H]2O)cc1F [Xeloda],CR (%) (complete tumor regression),[1]; [13],0%
same,"PR (%) (partial tumor regression, >50% tumor reduction)",[1]; [13],0%
same,CR (%) (complete tumor regression),[2]; [15],0%
"O=C1[O][Pt]2([NH][C@@H]3CCCC[C@H]3[NH]2)[O]C1=O [Oxaliplatin, oxaliplatin]",CR (%) (complete tumor regression),"[1]; mouse, in vivo",0%
same,"PR (%) (partial tumor regression, >50% tumor reduction)","[1]; mouse, in vivo",0%
same,CR (%) (complete tumor regression),"[2]; mouse, in vivo",0%
same,"PR (%) (partial tumor regression, >50% tumor reduction)","[2]; mouse, in vivo",0%
same,MTD (mg/kg) Mice,[3]; drug alone (−) or with MSC (+),7.5 mg/kg
same,toxicity (weight loss and diarrhea),[11],toxic
"C[Se]C[C@H](N)C(=O)O [MSC, 5-methylselenocysteine]",lowest effective dose in attenuating irinotecan toxicity,"[6]; nude mice, p.o. daily",0.01 mg/day
same,reducing toxicity of doxorubicin,[4],effective in reducing toxicity
same,toxicity of selenium compound alone,[12],not to be toxic
O=c1[nH]cc(F)c(=O)[nH]1 [FUra],HCT-8 CR (%),[7],0%
same,HCT-8 PR (%),[7],0%
same,HT-29 CR (%),[8],0%
same,HT-29 PR (%),[8],0%
same,CR (%) (complete tumor regression),[1]; [13],0%
same,"PR (%) (partial tumor regression, >50% tumor reduction)",[1]; [13],0%
same,CR (%) (complete tumor regression),[2]; [15],0%
